Laboratory results as given in PubChem BioAssay AID488770 (The Scripps Research Institute Molecular Screening Center, 2010).
Active and inactive are the calls of the source.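 The calls were made as follows: active = IC50 at or below 10 µM; inactive = IC50 above 10 µM.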

Each molecule was assayed against KH domain-containing RNA-binding protein QKI (Mus musculus) (UniProt Q9QYS9) (assay: blockers of quaking interaction with RNA – biochemical, fluorescence polarization, mouse QKI, powder samples, gld-1 inhibitor project, dose response (AID 488770)). Settings: 1536-well.
KH domain-containing RNA-binding protein QKI (Mus musculus), sequence (Q9QYS9 whole entry, looked up, the tested form may be a part): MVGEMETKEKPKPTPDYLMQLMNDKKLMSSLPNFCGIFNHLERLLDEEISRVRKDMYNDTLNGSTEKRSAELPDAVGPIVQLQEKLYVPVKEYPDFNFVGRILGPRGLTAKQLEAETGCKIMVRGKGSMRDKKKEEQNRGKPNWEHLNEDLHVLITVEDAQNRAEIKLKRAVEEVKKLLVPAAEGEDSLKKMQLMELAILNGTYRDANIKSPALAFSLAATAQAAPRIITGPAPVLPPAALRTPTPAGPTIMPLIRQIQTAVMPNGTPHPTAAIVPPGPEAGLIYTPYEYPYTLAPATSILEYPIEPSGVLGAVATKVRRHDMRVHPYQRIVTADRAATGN

First: COc1ccc(/C=C(\CC(=O)O)c2nc3ccccc3s2)cc1O
Second: Nc1c(O)ccc2c1C(=O)c1ccccc1C2=O
The IC50 of the first is 16-fold lower: 155 nM for the first, 2530 nM for the second.

Compared with `CC1=CC(=O)c2c(O)ccc(O)c2C1=O`, `Nc1ccc(O)c2c1C(=O)c1ccccc1C2=O` is 2.5-fold lower in IC50: 5620 nM for the first, 2280 nM for the second.

`CCCCn1c(=O)[nH]c2nc3cc(NC(C)=O)ccc3nc2c1=O` and `O=c1[nH]c2cc3ccccc3cc2nc1C(F)(F)F` are within 1.5-fold of each other in IC50: 1590 nM for the first, 1170 nM for the second.

First: CCN(CC)S(=O)(=O)c1ccc(N2CCCC2)c(NS(=O)(=O)c2ccc(F)cc2)c1
Second: Cc1ccc(S(=O)(=O)Nc2cc3c(C(=O)Nc4ccccc4)c(C)oc3c3ccccc23)cc1
The IC50 of the first is 6.2-fold higher: 1620 nM for the first, 262 nM for the second.

`O=C1C2=C(SCCS2)C(=O)N1CCCO` and `O=C(CN1C(=O)NC2(CCCCC2)C1=O)Oc1ccc2c(C(F)(F)F)cc(=O)oc2c1` are within 1.5-fold of each other in IC50: 2240 nM for the first, 2130 nM for the second.

`Cc1ccc(S(=O)(=O)Nc2cc3c(C(=O)Nc4ccccc4)c(C)oc3c3ccccc23)c(C)c1` gave an IC50 of 419 nM.

In the case of `CCOC(=O)c1c(C)oc2c1cc(NS(=O)(=O)c1ccc(C)cc1)c1ccccc12`, the IC50 is reported as > 59600 nM (inactive).
With `COc1ccc(C=Nc2c(-c3ccco3)nc3ccccn23)cc1OC` the IC50 was “inactive”.
In the case of `Nc1ccc2nonc2c1[N+](=O)[O-]`, the IC50 is reported as > 59600 nM (inactive).
For `O=c1[nH]c(=O)c2nc3ccccc3nc2[nH]1`, the IC50 was “inactive”.
